Laboratory results: patent publication US20080045584A1, “Use of Docetaxel for Treating Hepatocellular Carcinoma” (priority 1999, published 2008)

Key:
Hepa 1-6 cells = test: Propidium iodide (PI) exclusion assay, flow cytometry; format: cell-based, murine
Experimental: Cells were grown on 5-cm^2 flasks (CORNING) and treated with paclitaxel and docetaxel as set out above. Propidium iodide (10 μg/ml) was then added for 15 minutes incubation at 37° C. Then, medium was collected prior to harvest of the adherent cells. Both suspended and attached cells were collected and resuspended with 500 μl PBS for flow cytometry analysis as set out below. Debris signals were removed by FSC-SSC gating.
Cells (10000) were analyzed on a Becton Dickinson FACS Calibur flow cytometer using an argon-ion laser (15 mWatt) with incident beam at 488 nm. For PI exclusion assay, red fluorescence was collected through a 585 nm filter and the cell debris signals were removed by FSC-SSC gating. Data were acquired and analyzed using FACS/CELL Quest software on a Power Macintosh 7600/120 computer. Apoptotic cells and cells at specific cycle phases were determined by ModFit LT software.
Data are mean±standard error of mean from duplicated sample of at least three independent experiments. Cells were treated with drugs for 24-72 hours, and membrane permeability was measured by flowcytometric analysis of propidium exclusion in viable hepatoma cells. Data are the percentage of cells with intact cell membrane as compared to control

Hep G2 cells = test: DNA fragmentation electrophoresis analysis; format: cell-based, human; details: Hep G2, 0.1 and 1 μM, 72 hours
Experimental: DNA fragmentation assessment was according to the method Herrmann et al, Nucleic Acids Res., 22, 5506-5507, 1994.
Briefly, HEP G2 cells (2×10^7) were treated for 72 hours with paclitaxel and docetaxel as set out above and centrifuged. The thus obtained cell pellets were resuspended with NP-40 lysis buffer (1% NP-40 in 20 mM EDTA, 50 mM Tris-HCl, pH 7.5). After lysis of cells for a few seconds, the supernatants were collected (5 minutes at 1600×g). The extraction was repeated with the same lysis buffer. SDS (final concentration 1%) and RNase were added (final concentration 2.5 μg/μl) to supernatants and incubated for 2 hours at 56° C. followed by digestion with proteinase K (2.5 μg/μl) for 2 hours at 37° C. Then, the mixtures were added to 10 M ammonium acetate prior to 100% ethanol precipitation for 30 minutes at −20° C. The DNA was collected by centrifugation (10 min at 12000 ×g) followed by electrophoresis on 1.5% agarose gel.
In FIG. 3, M is a 100 base pair marker. […] Lanes 2 and 3 show mean paclitaxel (0.1 and 1 μM) treatment groups. Lanes 4 and 5 show mean docetaxel (0.1 and 1 μM) treatment groups.

Structure (SMILES): CC(=O)O[C@@]12CO[C@@H]1C[C@H](O)[C@@]1(C)C(=O)[C@H](O)C3=C(C)[C@@H](OC(=O)[C@H](O)[C@@H](NC(=O)OC(C)(C)C)c4ccccc4)C[C@@](O)([C@@H](OC(=O)c4ccccc4)[C@H]21)C3(C)C [Docetaxel]
- percentage of cells with intact cell membrane as compared to control (Hepa 1-6 cells; Hepa 1-6, 24 hrs, 0.01 μM): 94.45 ± 1.9%
- percentage of cells with intact cell membrane as compared to control (Hepa 1-6 cells; Hepa 1-6, 24 hrs, 0.1 μM): 83.35 ± 7.2%
- percentage of cells with intact cell membrane as compared to control (Hepa 1-6 cells; Hepa 1-6, 24 hrs, 1 μM): 81.88 ± 8.7%
- percentage of cells with intact cell membrane as compared to control (Hepa 1-6 cells; Hepa 1-6, 72 hrs, 0.01 μM): 77.18 ± 1.4%
- percentage of cells with intact cell membrane as compared to control (Hepa 1-6 cells; Hepa 1-6, 72 hrs, 0.1 μM): 43.94 ± 3.4%
- percentage of cells with intact cell membrane as compared to control (Hepa 1-6 cells; Hepa 1-6, 72 hrs, 1 μM): 38.90 ± 4.2%
- DNA fragmentation (agarose gel, FIG. 3) (Hep G2 cells): induced DNA fragmentation
